# What was measured:
# Cftr.KO mice = details: cited from earlier work
# [1] = system: bleomycin-induced lung fibrosis; experiment: Intratracheal bleomycin mouse model of pulmonary fibrosis (28-day model); assay type: in vivo, C57BL/6N mice; details: Day 28; oral once daily Day 7 to Day 28; fenretinide 10 mg/kg (as LAU-7b SDI), pirfenidone 100 mg/kg
# Source text: Oral administration of a solid, amorphous dispersion formulation of fenretinide (LAU-7b SDI) was provided as a treatment for reduction of pulmonary fibrosis, in a mouse model of lung fibrosis induced via a single intratracheal administration of bleomycin, for 21 days. The LAU-7b SDI formulation was obtained by spray drying and contains fenretinide in amorphous form in a solid dispersion comprising a matrix polymer, based on the following formula: 40% fenretinide, 59.6% povidone (KOLLIDON® 30), 0.24% butylated hydroxyanisole (BHA) and 0.16% butylated hydroxytoluene (BHT).
# Male C57BL/6N mice from Charles River Laboratories, 10-12 weeks of age, weighing around 20-25 g, at the time of their enrolment, received 50 μL of bleomycin sulfate (2.0 mg/kg) by a single intratracheal instillation on Day 1 of the study to induce lung fibrosis. The sham group received an equivalent volume of 0.9% saline. On Day 7 postbleomycin instillation, the animals were randomized in groups of animals based on their body weight loss and enhanced pause airway resistance estimate (PenH value), while the sham group had 6 mice. Oral dosing by gavage (10 mL/kg) with the vehicle (sham and BLM control groups), the test articles (fenretinide 10 mg/kg), and the reference compound (pirfenidone 100 mg/kg) were administered once daily starting from Day 7 to Day 28. Two hours following the last dose on Day 28, all mice were sacrificed, the lungs of each mouse harvested, flushed with 0.9% NaCl and inflated with 10% neutral buffered formalin solution. After embedding and mounting of the lung tissue (transversal slices of 5 μm thickness), the histology slides were stained with hematoxylin/eosin for the Ashcroft score evaluation by a treatment-blinded pathologist and with Sirius red staining for automated fibrosis quantification (Biocelvia, France).
# The key endpoints evaluated in this study were Ashcroft score, pulmonary foci and collagen content obtained by histological assessment of the lung tissue at the end of the study. Statistical analysis was made on normally distributed data by one-way ANOVA followed by multiple comparisons (Fisher's LSD post hoc test) to assess the difference between the groups, using Graph Pad Prism Software version 8.0 (San Diego, CA, USA). Differences were considered statistically significant when P values were p<0.05 (*), or p<0.01 (**) or p<0.001 (***).
# Ashcroft scale for the evaluation of bleomycin-induced lung fibrosis is the analysis of stained histological samples by visual assessment. The Ashcroft score was assessed in lung tissue collected on Day 28 by treatment-blinded pathologist on H&E stained lung tissue histology slides (3 cross sections/animal) and using the modified Ashcroft scale. Briefly, each lung section was scanned at a magnification of x100 (H&E staining), read by a blinded examiner, and graded from 0 (normal lung) to 8 (total fibrotic obliteration of the field). Criteria for grading lung fibrosis in Ashcroft scale are as follows: Grade 0=normal lung; Grade 1=minimal fibrous thickening of alveolar or bronchiolar walls; Grade 3=moderate thickening of walls without obvious damage to lung architecture; Grade 5=increased fibrosis with definitive damage to lung structure and formation of fibrous bands or small fibrous masses; Grade 7=severe distortion of structure and large fibrous area; Grade 8=total fibrous obliteration of lung fields. The mean value of the grades obtained for each of the three sections was used as the Ashcroft score. Ashcroft score, using the modified scale, is a reliable and reproducible method of visual quantification of bleomycin induced lung fibrosis in H&E stained histological lung sections based on description of the general morphology of alveolar septa and lung structure. […]
smiles,measurement,setting,value
"CC1=C(/C=C/C(C)=C/C=C/C(C)=C/C(=O)Nc2ccc(O)cc2)C(C)(C)CCC1 [fenretinide, 4-hydroxyphenyl retinamide]",levels of DHA and AA and sphingolipids imbalance in the lungs and plasma,Cftr.KO mice,correct the levels
same,lung inflammation,Cftr.KO mice,reduction
same,pulmonary load of Pseudomonas aeruginosa,Cftr.KO mice,significant decrease
same,Ashcroft score vs BLM control,[1],reduced significantly (p<0.05)
same,"percentage of collagen content in lung tissue, automated Sirius red analysis, vs BLM control",[1],significantly reduced
same,"percentage of pulmonary foci (fibrotic tissue), automated Sirius red analysis, vs BLM control",[1],significant reduction
